In patent US10213427B2 (Incyte Corporation, priority 2010, dated 2019):

Biological target: FGFR3 enzyme (Millipore) (Homo sapiens (Human), UniProt P22607)
Assay: FGFR3 Enzymatic Assay
Type: biochemical
Conditions: FRET peptide phosphorylation, 140 μM ATP
Method: The inhibitor potency of compounds of the invention was measured in an enzyme assay that measures peptide phosphorylation using FRET measurements to detect product formation. Inhibitors were serially diluted in DMSO and a volume of 0.5 μL was transferred to the wells of a 384-well plate. A 10 μL volume of FGFR3 enzyme (Millipore) diluted in assay buffer (50 mM HEPES, 10 mM MgCl2, 1 mM EGTA, 0.01% Tween-20, 5 mM DTT, pH 7.5) was added to the plate and pre-incubated for 5-10 minutes. Appropriate controls (enzyme blank and enzyme with no inhibitor) were included on the plate. […] The plate was incubated at 25° C. for 1 hr. […] The plate was allowed to equilibrate for ˜1 hr before scanning the wells on a PheraStar plate reader.
GraphPad prism3 was used to analyze the data. The IC50 values were derived by fitting the data to the equation for a sigmoidal dose-response with a variable slope. Y=Bottom+(Top−Bottom)/(1+10^((Log IC50−X)*HillSlope)) where X is the logarithm of concentration and Y is the response.

Chain of FGFR3 enzyme (Millipore) (P22607 23-806): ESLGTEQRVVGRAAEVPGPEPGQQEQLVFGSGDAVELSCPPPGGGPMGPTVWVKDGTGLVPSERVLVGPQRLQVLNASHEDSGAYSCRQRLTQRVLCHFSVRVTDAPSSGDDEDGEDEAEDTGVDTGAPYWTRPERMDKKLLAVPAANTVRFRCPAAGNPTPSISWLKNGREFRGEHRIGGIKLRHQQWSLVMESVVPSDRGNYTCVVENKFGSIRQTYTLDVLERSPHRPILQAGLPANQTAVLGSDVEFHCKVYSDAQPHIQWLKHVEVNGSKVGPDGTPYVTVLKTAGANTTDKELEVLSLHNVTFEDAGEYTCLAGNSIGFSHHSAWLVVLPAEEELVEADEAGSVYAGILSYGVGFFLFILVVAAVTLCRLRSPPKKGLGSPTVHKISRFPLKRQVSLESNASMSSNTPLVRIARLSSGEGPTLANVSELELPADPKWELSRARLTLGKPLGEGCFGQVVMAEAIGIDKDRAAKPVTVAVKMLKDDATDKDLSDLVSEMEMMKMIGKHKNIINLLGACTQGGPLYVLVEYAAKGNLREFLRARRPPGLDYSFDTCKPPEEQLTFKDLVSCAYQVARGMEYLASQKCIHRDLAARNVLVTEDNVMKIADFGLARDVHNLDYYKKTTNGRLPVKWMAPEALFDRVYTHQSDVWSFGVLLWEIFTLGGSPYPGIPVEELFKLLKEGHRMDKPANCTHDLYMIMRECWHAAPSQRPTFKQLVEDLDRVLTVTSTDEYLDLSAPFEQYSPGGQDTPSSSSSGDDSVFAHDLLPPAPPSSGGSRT

| SMILES | IC50 [µM] |
| --- | --- |
| O=C(NCC(F)(F)F)Nc1cccc(-n2cnc3cc(-c4cnn(C5CCN(C(=O)Nc6cccnc6)CC5)c4)ccc32)c1 [Example 25] | < 0.01 |
| O=C(NCC(F)(F)F)Nc1cccc(-n2cnc3cc(-c4cnn(C5CCN(C(=O)CC6CC6)CC5)c4)ccc32)c1 [Example 27, N-[3-(5-{1-[1-(Cyclopropylacetyl)piperidin-4-yl]-1H-pyrazol-4-yl}-1H-benzimidazol-1-yl)phenyl]-N′-(2,2,2-trifluoroethyl)urea] | < 0.01 |
| N#CCC(=O)N1CCC(n2cc(-c3ccc4c(c3)ncn4-c3cccc(NC(=O)NCC(F)(F)F)c3)cn2)CC1 [Example 28, N-[3-(5-{1-[1-(Cyanoacetyl)piperidin-4-yl]-1H-pyrazol-4-yl}-1H-benzimidazol-1-yl)phenyl]-N′-(2,2,2-trifluoroethyl)urea] | < 0.01 |
| Cn1ccc(S(=O)(=O)N2CCC(n3cc(-c4cnn5c(-c6cccc(NC(=O)NCC(F)(F)F)c6)cnc5c4)cn3)CC2)n1 [Example 31, N-{3-[7-(1-{1-[(1-methyl-1H-pyrazol-3-yl)sulfonyl]piperidin-4-yl}-1H-pyrazol-4-yl)imidazo[1,2-b]pyridazin-3-yl]phenyl}-N′-(2,2,2-trifluoroethyl)urea] | < 0.01 |
| O=C(NCC(F)(F)F)Nc1cccc(-c2cnc3cc(-c4cnn(C5CCN(C(=O)CC6CCCC6)CC5)c4)cnn23)c1 [Example 35, N-[3-(7-{1-[1-(cyclopentylacetyl)piperidin-4-yl]-1H-pyrazol-4-yl}imidazo[1,2-b]pyridazin-3-yl)phenyl]-N′-(2,2,2-trifluoroethyl)urea] | < 0.01 |

Next, values leading:

| IC50 [µM] | SMILES |
| --- | --- |
| < 0.01 | Cn1ccc(S(=O)(=O)N2CCC(n3cc(-c4ccc5c(c4)ncn5-c4cccc(NC(=O)NCC(F)(F)F)c4)cn3)CC2)n1 [Example 24, N-{3-[5-(1-{1-[(1-Methyl-1H-pyrazol-3-yl)sulfonyl]piperidin-4-yl}-1H-pyrazol-4-yl)-1H-benzimidazol-1-yl]phenyl}-N′-(2,2,2-trifluoroethyl)urea] |
| < 0.01 | O=C(NCC(F)(F)F)Nc1cccc(-n2cnc3cc(-c4cnn(C5CCN(C(=O)N6CCCC6)CC5)c4)ccc32)c1 [Example 26, N-[3-(5-{t-[1-(Pyrrolidin-1-ylcarbonyl)piperidin-4-yl]-1H-pyrazol-4-yl}-1H-benzimidazol-1-yl)phenyl]-N′-(2,2,2-trifluoroethyl)urea] |
| < 0.01 | O=C(NCC(F)(F)F)Nc1cccc(-n2cnc3cc(-c4cnn(C5CCN(C(=O)C6CCCO6)CC5)c4)ccc32)c1 (stereo not drawn) [Example 29, N-[3-(5-{1-[1-(Tetrahydrofuran-2-ylcarbonyl)piperidin-4-yl]-1H-pyrazol-4-yl}-1H-benzimidazol-1-yl)phenyl]-N′-(2,2,2-trifluoroethyl)urea] |
| < 0.01 | COCC(=O)N1CCC(n2cc(-c3cnn4c(-c5cccc(NC(=O)NCC(F)(F)F)c5)cnc4c3)cn2)CC1 [Example 30, N-[3-(7-{1-[1-(Methoxyacetyl)piperidin-4-yl]-1H-pyrazol-4-yl}imidazo[1,2-b]pyridazin-3-yl)phenyl]-N′-(2,2,2-trifluoroethyl)urea] |
| < 0.01 | Cn1cc(C(=O)N2CCC(n3cc(-c4cnn5c(-c6cccc(NC(=O)NCC(F)(F)F)c6)cnc5c4)cn3)CC2)cn1 [Example 32, N-{3-[7-(1-{1-[(1-Methyl-1H-pyrazol-4-yl)carbonyl]piperidin-4-yl}-1H-pyrazol-4-yl)imidazo[1,2-b]pyridazin-3-yl]phenyl}-N′-(2,2,2-trifluoroethyl)urea] |
| < 0.01 | CN(C)CC(=O)N1CCC(n2cc(-c3cnn4c(-c5cccc(NC(=O)NCC(F)(F)F)c5)cnc4c3)cn2)CC1 [Example 33, N-{3-[7-(1-{1-[(Dimethylamino)acetyl]piperidin-4-yl}-1H-pyrazol-4-yl)imidazo[1,2-b]pyridazin-3-yl]phenyl}-N′-(2,2,2-trifluoroethyl)urea] |
| < 0.01 | O=C(NCC(F)(F)F)Nc1cccc(-c2cnc3cc(-c4cnn(C5CCN(S(=O)(=O)Cc6ccccc6)CC5)c4)cnn23)c1 [Example 34, N-[3-(7-{1-[1-(Benzylsulfonyl)piperidin-4-yl]-1H-pyrazol-4-yl}imidazo[1,2-b]pyridazin-3-yl)phenyl]-N′-(2,2,2-trifluoroethyl)urea] |
